Results reported in US11286263B2, “Macrocyclic fluorine substituted indole derivatives” (The Broad Institute, Inc., priority 2017, dated 2022).
Values joined by “and” are separate entries in the source; they are usually repeats but may differ in a detail not shown here. Equal values may be shown once. Read-outs that look alike come from different tables or passages of the source.

Columns and labels:
SUDHL5 [1] = experiment: Antiproliferation assay SUDHL5 (Assay 7); type: cell-based; settings: SUDHL5 cells, CellTiter-Glo, median, read-out: IC50 Antiproli SUDHL5 [M] (median)
Outline: (§1)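 Cells were exposed to compounds for 72 h at 37 °C in a humidified incubator, with rim wells excluded. Viability was read by CellTiter-Glo luminescence after a 10 min incubation. A parallel day 0 plate, read the same way, gave the time-zero baseline.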

SUDHL5 [2] = experiment: Induction of caspase-3/7 activity, SUDHL5 (Assay 4); type: cell-based; settings: SUDHL5 cells
Outline: (§2)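 DLBCL lines treated with compounds for 3 h at 37° C.; caspase-3/7 activity read by Caspase-Glo 3/7 luminescence. Medium-only background subtracted; EC50 fitted with bottom fixed at 1 and top set to reference compound's maximal induction.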

SUDHL10 = experiment: Induction of caspase-3/7 activity, SUDHL10 (Assay 4); type: cell-based; settings: SUDHL10 cells
Outline: as §2

MV-4-11 = experiment: Antiproliferation assay MV-4-11 (Assay 7); type: cell-based; settings: MV-4-11 cells, CellTiter-Glo, single determinations, read-out: IC50 Antiproli MV-4-11
Outline: as §1

SUDHL5 [3] = experiment: Induction of cytotoxicity, SUDHL5 (Assay 6); settings: read-out: IC50 Cytotox SUDHL5 [M] (median), SUDHL5 cells, 5 h, CellTiter-Glo
BCL-2 = BCL-2 (Homo sapiens (Human), UniProt P10415); experiment: Protein-protein interaction assay BCL-2/Bad BH3 peptide (BCL-2 assay), TR-FRET; type: binding; settings: BCL-2/Bad BH3 peptide TR-FRET; median
Method: Assay 3 Protein-Protein Interaction assay: BCL-2/Bad BH3 Peptide (BCL-2 Assay)
The dose-dependent inhibition by the compounds described in this invention of the interaction between BCL-2 and the BH3 domain of Bad (both human) was determined using a steady state binding competition assay with time-resolved fluorescence energy transfer (TR-FRET) readout. For that purpose BCL-2 (amino acids 1-211, C-terminal fused to a hexahistidine (6× His) tag (SEQ ID 5) and a synthetic Bad BH3-derived peptide of sequence Biotin-PEG2-PEG2-NLWAAQRYGRELRR-Nle-SDEFVDSFKK-amide (SEQ ID 4) served as protein receptor and tracer ligand respectively. The recombinant BCL-2 protein (expressed in E. coli) was purchased from BPS Bioscience (San Diego, Calif., USA). The Bad BH3-derived peptide can be obtained from e.g. Biosyntan (Berlin, Germany).
In the assay 11 different concentrations of each compound (0.1 nM, 0.33 nM, 1.1 nM, 3.8 nM, 13 nM, 44 nM, 0.15 μM, 0.51 μM, 1.7 μM, 5.9 μM and 20 μM) were typically measured as duplicates in the same microtiter plate. For that, 100-fold concentrated DMSO solutions were prepared by serial dilutions (1:3.4) of a 2 mM stock solution in a clear, 384-well microtiter plate (Greiner Bio-One, Frickenhausen, Germany). From there, 50 nl were transferred in a dark test plate (Greiner Bio-One, Frickenhausen, Germany). The assay was initiated by addition of 2 μl of a 2,5-fold concentrated His-BCL-2 solution (usually for a 1 nM end concentration in 5 μl reaction volume) in aqueous assay buffer [50 mM Tris/HCl pH 7, 100 mM sodium chloride (NaCl), 50 mM potassium fluoride (KF), 0.005% Tween-20, 2 mM DTT, 0.1% bovine gamma globulin (BGG)] to the compounds in the assay plate. This was followed by a 10-minute incubation step at 22° C. for pre-equilibration of the putative complex between His-BCL-2 and the compounds. After that, 3 μl of a 1.67-fold concentrated solution (in assay buffer) consisting of Bad BH3-derived peptide (1 nM end concentration) and TR-FRET detection reagents [1.67 nM anti-His-Eu cryptate and 1.67 nM streptavidin-XL665 (both from Cisbio Bioassays, Codolet, France)], were added.
The mixture was incubated in the dark for one hour at 22° C. and then overnight at 4° C. The formation of BCL-2/Bad complexes was determined by measuring the resonance energy transfer of the anti-His-Eu-cryptate antibody to the streptavidin-XL665 present in the reaction. For that purpose, the fluorescence emission at 620 nm and 665 nm after excitation at 330-350 nm was measured in a TR-FRET measuring instrument, for instance a Rubystar or a Pherastar (both from BMG Lab Technologies, Offenburg, Germany) or a Viewlux (Perkin-Elmer). The ratio of the emission at 665 nm and at 622 nm was used as indicator of the amount of BCL-2/Bad complexes present.
The resulting data (ratio) were normalized, taking 0% inhibition as the mean value of control measurements (usually 32 data points) where all reagents were included. In this case 50 nl DMSO were used instead of compounds. A 100% inhibition corresponded to the mean value of control measurements (usually 32 data points) where all reagents except BCL-2 were included. IC50 values were determined by regression analysis based on a 4 parameter equation (minimum, maximum, IC50, Hill; Y=Max+(Min−Max)/(1+(X/IC50)^Hill) using the Screener Software (Genedata).

[4] = Homo sapiens, SU-DHL-5, 3 h, Caspase-Glo 3/7, median
[5] = Homo sapiens, SU-DHL10, 3 h, Caspase-Glo 3/7, median

Sequence of BCL-2 (P10415 1-211): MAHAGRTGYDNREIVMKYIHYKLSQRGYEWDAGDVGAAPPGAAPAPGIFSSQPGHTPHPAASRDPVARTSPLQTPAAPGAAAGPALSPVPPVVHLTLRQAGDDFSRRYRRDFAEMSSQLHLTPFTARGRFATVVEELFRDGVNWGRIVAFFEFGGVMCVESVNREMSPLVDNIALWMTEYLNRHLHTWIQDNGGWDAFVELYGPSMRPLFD

| SMILES | IC50 (SUDHL5 [1]; Homo sapiens, SU-DHL-5, 72 h) | EC50 (SUDHL5 [2]; [4]) | EC50 (SUDHL10; [5]) | IC50 (MV-4-11; Homo sapiens, MV4-11, 72 h) | IC50 (MV-4-11; 72 h, listed as 09) | IC50 (SUDHL5 [3]; Homo sapiens, SU-DHL-5, 5 h) | IC50 (BCL-2) | IC50 (MV-4-11; 72 h) | IC50 (SUDHL5 [1]; 72 h) | EC50 (SUDHL5 [2]; 3 h, Caspase-Glo 3/7, median) | EC50 (SUDHL10; 3 h, Caspase-Glo 3/7, median) | IC50 (SUDHL5 [3]) |
| --- | --- | --- | --- | --- | --- | --- | --- | --- | --- | --- | --- | --- |
| Cc1nn(C)c2c1-c1c(F)ccc3c(CCCOc4cccc5ccccc45)c(C(=O)O)n(c13)C/C=C\COC2 (racemic) [Example 9, (rac)-(Z)-13-fluoro-10,12-dimethyl-1-(3-(naphthalen-1-yloxy)propyl)-4,7,9,10-tetrahydro-pyrazolo[4′,3′:9,10][1]oxa[6]azacycloundecino[8,7,6-hi]indole-2-carboxylic acid] | 3.7e-06 M | 2.7 µM | 18 µM | 7.5 µM | 6.04 µM | 2.9e-06 M | > 20 µM | – | – | – | – | – |
| CCc1nn(C)c2c1-c1c(F)ccc3c(CCCOc4cc(C)c(Cl)c(C)c4)c(C(=O)O)n(c13)CCCCOC2 (racemic) [Example 46, (rac)-1-(3-(4-chloro-3,5-dimethylphenoxy)propyl)-12-ethyl-13-fluoro-10-methyl-4,5,6,7,9,10-hexahydropyrazolo[4′,3′:9,10][1]oxa[6]azacycloundecino[8,7,6-hi]indole-2-carboxylic acid] | 2.9e-06 M | 2.5 µM | 7.7 µM | 21 µM | – | 3.1e-06 M | > 20 µM | 11.4 µM | – | – | – | – |
| Cc1c2c(nn1C)COCCCCn1c(C(=O)O)c(CCCOc3cccc4c3CCC4)c3ccc(F)c-2c31 (racemic) [Example 19, (rac)-1-(3-((2,3-dihydro-1H-inden-4-yl)oxy)propyl)-13-fluoro-11,12-dimethyl-4,5,6,7,9,11-hexahydropyrazolo[4′,3′:9,10][1]oxa[6]azacycloundecino[8,7,6-hi]indole-2-carboxylic acid] | 1e-06 M | 0.96 µM | 3.8 µM | 4.3 µM | – | 1.4e-06 M | > 20 µM | 2.9 µM and 4.9 µM | – | – | – | – |
| CCc1c2c(nn1C)COCCCCn1c(C(=O)O)c(CCCOc3cccc4c3CCCC4)c3ccc(F)c-2c31 (racemic) [Example 29, (rac)-12-ethyl-13-fluoro-11-methyl-1-(3-((5,6,7,8-tetrahydronaphthalen-1-yl)oxy)propyl)-4,5,6,7,9,11-hexahydropyrazolo[4′,3′:9,10][1]oxa[6]azacycloundecino[8,7,6-hi]indole-2-carboxylic acid] | 1.4e-06 M | 1.2 µM | 1.7 µM | 2.04 µM | – | 1.2e-06 M | > 20 µM | 2.55 µM | – | – | – | – |
| Cc1cc(OCCCc2c(C(=O)O)n3c4c(c(F)ccc24)-c2c(nn(C)c2C)COCCCC3)cc(C)c1Cl (racemic) [Example 20, (rac)-1-(3-(4-chloro-3,5-dimethylphenoxy)propyl)-13-fluoro-11,12-dimethyl-4,5,6,7,9,11-hexahydropyrazolo[4′,3′:9,10][1]oxa[6]azacycloundecino[8,7,6-hi]indole-2-carboxylic acid] | 1.1e-06 M | 1.4 µM | 4 µM | 8.18 µM | – | 1.8e-06 M | > 20 µM | 5.54 µM | – | – | – | – |
| CCc1nn(C)c2c1-c1c(F)ccc3c(CCCOc4ccc(F)c5ccccc45)c(C(=O)O)n(c13)CCCCOC2 (single isomer, unassigned; enantiomer 1) [Example 42, 3-ethyl-4-fluoro-7-{3-[(4-fluoronaphthalen-1-yl)oxy]propyl}-1-methyl-1,10,11,12,13,15-hexahydropyrazolo[4′,3′:9,10][1,6]oxazacycloundecino[8,7,6-hi]indole-8-carboxylic acid (enantiomer 1)] | – | – | – | – | – | – | > 20 µM | 5.79 µM | 2.1e-06 M | 1.8 µM | 6.3 µM | 2e-06 M |
| CCc1nn(C)c2c1-c1c(F)ccc3c(CCCOc4cccc5ccccc45)c(C(=O)O)n(c13)CCCCOC2 (racemic) [Example 37, (rac)-12-ethyl-13-fluoro-10-methyl-1-(3-(naphthalen-1-yloxy)propyl)-4,5,6,7,9,10-hexahydro-pyrazolo[4′,3′:9,10][1]oxa[6]azacycloundecino[8,7,6-hi]indole-2-carboxylic acid] | 1.6e-06 M | 1.7 µM | 7.2 µM | 8.4 µM | – | 2.1e-06 M | > 20 µM | 6.8 µM and 7.54 µM | – | – | – | – |
| Cc1nn(C)c2c1-c1c(F)ccc3c(CCCOc4ccc(F)c5ccccc45)c(C(=O)O)n(c13)CCCCOC2 (racemic) [Example 33, (rac)-13-fluoro-1-(3-((4-fluoronaphthalen-1-yl)oxy)propyl)-10,12-dimethyl-4,5,6,7,9,10-hexahydropyrazolo[4′,3′:9,10][1]oxa[6]azacycloundecino[8,7,6-hi]indole-2-carboxylic acid] | 3e-06 M | 2.9 µM | 9.1 µM | 11.2 µM | – | 3.5e-06 M | > 20 µM | – | – | – | – | – |
| Cc1cc(OCCCc2c(C(=O)O)n3c4c(c(F)ccc24)-c2c(C)nn(C)c2COCCCC3)cc(C)c1Cl (racemic) [Example 36, (rac)-1-(3-(4-chloro-3,5-dimethylphenoxy)propyl)-13-fluoro-10,12-dimethyl-4,5,6,7,9,10-hexahydropyrazolo[4′,3′:9,10][1]oxa[6]azacycloundecino[8,7,6-hi]indole-2-carboxylic acid] | 3.2e-06 M | 3.5 µM | 12 µM | 16.4 µM | – | 4.3e-06 M | > 20 µM | – | – | – | – | – |
| CCc1c2c(nn1C)COCCCCn1c(C(=O)O)c(CCCOc3cc(C)c(Cl)c(C)c3)c3ccc(F)c-2c31 (racemic) [Example 31, (rac)-1-(3-(4-chloro-3,5-dimethylphenoxy)propyl)-12-ethyl-13-fluoro-11-methyl-4,5,6,7,9,11-hexahydropyrazolo[4′,3′:9,10][1]oxa[6]azacycloundecino[8,7,6-hi]indole-2-carboxylic acid] | 3e-06 M | 2.5 µM | 4.5 µM | 6.07 µM | – | 2.9e-06 M | > 20 µM | 8.25 µM | – | – | – | – |
| Cc1nn(C)c2c1-c1c(F)ccc3c(CCCOc4cccc5ccccc45)c(C(=O)O)n(c13)CCCCOC2 (racemic) [Example 10, (rac)-13-fluoro-10,12-dimethyl-1-(3-(naphthalen-1-yloxy)propyl)-4,5,6,7,9,10-hexahydro-pyrazolo[4′,3′:9,10][1]oxa[6]azacycloundecino[8,7,6-hi]indole-2-carboxylic acid] | 1.8e-06 M | 1.7 µM | 7.8 µM | 6.53 µM | – | 1.8e-06 M | > 20 µM | 4.39 µM | – | – | – | – |
